Assay results as given in patent publication US20250268919A1, “COMPOUNDS FOR THE TREATMENT OF CANCER” (Amneal Pharmaceuticals LLC, priority 2021, published 2025).
Blank lines part the entries; values can stand above or below the compound they belong to.

Tests used:
in vitro [1] = settings: human, Caco-2
[2] = Pharmacokinetic study in monkey, single oral dose; type: in vivo; settings: 50 mg/kg single oral; Cynomolgus monkey; plasma
Description: The objective of the study was to evaluate pharmacokinetic exposure of compound 121 after per oral dosing at 25 mg/kg dose and Fulvestrant after per oral dosing at 50 mg/kg dose in Cynomolgus monkey. The study was performed in overnight fasted Cynomolgus monkeys.
Blood samples were collected at each time points like 0 h (pre-dose) and 0.25, 0.5, 1, 2, 4, 8, 12, 24, 36 and 48 h post-dose via the cephalic or saphenous veins into polyethylene microcentrifuge tubes containing potassium (K2) EDTA. There were total 11 time points, n=1 monkey. All blood samples were mixed well by inversion and placed on wet ice until processed for plasma. Blood samples were centrifuged at 2˜8° C. for 10 min at 3000 g to collect plasma. Plasma samples of approximately […] at each time point were used for the bioanalysis. The plasma samples were stored frozen in a freezer set to maintain −60° C. to −70° C. until LC/MS/MS analysis.
Bioanalysis was performed using fit-for-purpose LC-MS/MS method for the quantification of compound 121 or Fulvestrant in plasma samples. The calibration curve was prepared in stabilized blank monkey plasma over 1-1000 ng/mL range for compound 121 and 1-3000 ng/mL range for Fulvestrant. Samples were cleaned up using the protein precipitation technique and analysed by LC-MS/MS.
The plasma pharmacokinetic parameters were calculated using standard non-compartmental analysis (using linear trapezoidal method with linear interpolation.)

MCF7 tumor = test: Anticancer efficacy of compound 121 in nude mice bearing MCF7 tumor; type: in vivo; settings: 1 mg/mouse (~33.3 mg/kg) subcutaneously; MCF-7 xenograft mice
Description: For this purpose, MCF7 cancer cells were procured from ATCC and grown in DMEM Medium supplemented with 10% FBS and 1% penicillin streptomycin. Cells were harvested when they reach 70-80% confluence for tumor implantation. 24 h prior to MCF7 cells implantation, the skin area around the injection site of nude mice were disinfected by mildly swabbing with surgical spirit. […] pellet (0.18 mg/pellet 60-day release, Innovative Research of America) was subcutaneously implanted into in the left flank region of the animals. For cell inoculation, cells were mixed with equal volume of Matrigel in a 1:1 ratio followed by injection of 5×10^6 MCF7 cells subcutaneously on the right flank region using a 1 mL syringe attached to a 24 G needle. On the subsequent days the injection site was monitored for tumor palpability. Tumor grafts were measured within 7-8 days of cell inoculation for tumor palpability. […]
After randomization, treatment was initiated when the average tumor volume reaches −200±50 mm^3. Tumor volume and mouse body weight were measured on the first day of treatment (Day 1) and then three times per week till 28 days as shown in FIG. 4. […]
Tumor volume (mm^3) was calculated using the formula, tumor length×(tumor width)2/2. Tumor growth inhibition will be calculated after normalizing the values to that on day 1. % TGI was calculated based on the formula below.

in vitro [3] = settings: human, microsomes, pH 7.4
Description: The assay was performed in duplicate.
Supernatant (200 μL) from each reaction tube was taken for LC-MS/MS analysis.

CACO-2 cell line = settings: standard compounds at 5 μM; apical to basolateral

efflux ratio at 5 μM (in vitro [1]): 19.7
SMILES: C[C@H]1O[C@@H](O[C@H]2[C@@H](O)C[C@H](O[C@H]3[C@@H](O)C[C@H](O[C@H]4CC[C@@]5(C)[C@H](CC[C@@H]6[C@@H]5C[C@@H](O)[C@]5(C)[C@@H](C7=CC(=O)OC7)CC[C@]65O)C4)O[C@@H]3C)O[C@@H]2C)C[C@H](O)[C@@H]1O [Digoxin]

AUC % Extrap [2]: Inestimable | AUC_0-t [2]: Inestimable | AUC_0-∞ [2]: Inestimable | Cmax [2]: Inestimable | Tmax [2]: Inestimable
SMILES: C[C@]12CC[C@@H]3c4ccc(O)cc4C[C@@H](CCCCCCCCC[S+]([O-])CCCC(F)(F)C(F)(F)F)[C@H]3[C@@H]1CC[C@@H]2O (stereo partly drawn) [Fulvestrant]
% Tumor Growth Inhibition (% TGI) on day 28 (MCF7 tumor): 101%

SMILES: CC(=O)N1CCN(c2ccc(OCC3COC(Cn4ccnc4)(c4ccc(Cl)cc4Cl)O3)cc2)CC1 (stereo not drawn) [Ketoconazole]
half-life (in vitro [3]): > 2 h

SMILES: CC(C)NCC(O)COc1cccc2ccccc12 (stereo not drawn) [Propranolol]
A-B permeability (CACO-2 cell line): 62.15 ×10⁻⁶ cm/s
